Results reported in patent EP0755932A1, “(Thiophen-2-yl)piperidin or tetrahydropyridin-azabicyclocarboxamides” (AMERICAN HOME PRODUCTS CORPORATION, priority 1995, dated 1997).

Biological target: T1, 5-HT1A serotonin receptor (Rattus norvegicus, UniProt P19327)
T1 construct: from tissue; host or cells: rat brain membranes (inferred from the cited Hall et al. procedure)
T1 sequence (P19327 1-422): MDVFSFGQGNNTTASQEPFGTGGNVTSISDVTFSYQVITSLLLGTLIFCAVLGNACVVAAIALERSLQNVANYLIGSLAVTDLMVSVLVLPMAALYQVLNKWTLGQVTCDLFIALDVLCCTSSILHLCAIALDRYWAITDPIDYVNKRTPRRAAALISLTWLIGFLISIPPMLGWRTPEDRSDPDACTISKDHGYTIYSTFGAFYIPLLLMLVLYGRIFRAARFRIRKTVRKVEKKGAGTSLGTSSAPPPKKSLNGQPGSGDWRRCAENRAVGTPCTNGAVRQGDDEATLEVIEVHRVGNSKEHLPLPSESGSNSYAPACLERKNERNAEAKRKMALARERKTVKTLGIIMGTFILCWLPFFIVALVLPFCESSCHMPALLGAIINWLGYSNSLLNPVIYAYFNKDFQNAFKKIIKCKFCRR
Assay: Displacement of [3H] 8-OHDPAT from the 5-HT1A serotonin receptor (procedure of Hall et al.)
Format: binding
Text: 8-OHDPAT (dipropylaminotetralin) from the 5-HT1A serotonin receptor following the procedure of Hall et al., J. Neurochem. 44, 1685 (1985).

| Compound | IC50 [nM] |
| --- | --- |
| COc1ccsc1C1(O)CCN(CC[C@@H](C(=O)N2C3CCCC2CC3)c2ccccc2)CC1 [Example 1, (R)-1-(8-Aza-bicyclo[3.2.1.]oct-8-yl)-4-[4-hvdroxy-4-(3-methoxythiophen-2-yl)-piperidin-1-yl]-2-phenylbutan-1-one] | 942 |
| COc1ccsc1C1=CCN(CC[C@@H](C(=O)N2C3CCCC2CC3)c2ccccc2)CC1 [Example 2, (R)-1-(8-Aza-bicyclo[3.2.1.]oct-8-yl)4-[4-(3-methoxythiophen-2-yl)-1,2,3,6-tetrahydropyridin-1-yl]-2-phenylbutan-1-one] | 0.9 |
